In one data set the test system is HBV. As to the kind of experiment: HBV-DNA antiviral assay using HepG2.117 cells. Format: cell-based, HBV genotype D. The following applies: Hepatitis B virus, 72 h; HBV DNA inhibition, intracellular HBV DNA by qPCR, HepG2.117 cells, 3 days incubation; read-out: EC50. The procedure:
(§1) The following assay procedure describes the HBV antiviral assay, using HepG2.117 cells, which carry a stably integrated genotype D HBV genome under the control of a Tet-off promoter, and intracellular HBV DNA quantification as endpoint. Cell viability is assessed in parallel by measuring the intracellular ATP content using CellTiter-Glo 2.0 (Promega).
On day 0, HepG2.117 cells (which are maintained in routine cell culture with doxycycline present in the medium at a final concentration of 1 μg/mL) are seeded in 96-well plates (white with clear bottom) at a density of 2.0×10^4 cells/well (0.1 mL/well) in medium without doxycycline to induce pgRNA transcription and subsequent formation of HBV particles. The cells are incubated at 37° C. and 5% CO2.
(§2) On day 1, medium is removed from each well, the test articles are diluted in culture medium without doxcycyline and 100 μL was added to cell culture wells (9 concentrations, 4-fold dilution). For each plate, 6 untreated (merely DMSO) wells are included. The final concentration of DMSO in the culture medium is 2%. Each plate is prepared in duplicate (one for HBV DNA extraction, one for CellTiter-Glo 2.0 measurement). The cells are incubated at 37° C. and 5% CO2 for 3 days.
(§3) On day 4, cell viability is assessed using CellTiter-Glo 2.0 and cell lysates are prepared for HBV DNA extraction and subsequent quantification by qPCR.
Medium is removed from each well and 100 μL of 0.33% NP-40 in H2O was added to each well. Plates are sealed, incubated at 4° C. for 5 mins, vortexed extensively and centrifuged briefly. Next, 35 μL of lysate is added to 65 μL QuickExtract DNA Extraction Solution (Epicentre) in a PCR plate for each well. PCR plate is incubated at 65° C. for 6 mins, 98° C. for 2 mins and finally cooled to 4° C. HBV DNA is then quantified by qPCR with HBV-specific primers and probes as specified in Table 2 using the Bio-Rad SSOAdvanced Universal Probes Supermix on a CFX96 machine (Bio-Rad). The PCR cycle program consisted of 95° C. for 3 mins, followed by 40 cycles at 95° C. for 10 sec and 60° C. for 30 sec.
A DNA standard is prepared by dilution of an IDT gBlock corresponding to the amplicon with concentrations ranging from 10^2 to 10^8 copies/input (i.e., per 4 μL) and used to generate a standard curve by plotting Cq values vs. HBV DNA standard concentration. The quantity of HBV DNA in each sample is determined by interpolating from the standard curve.
(§4) Cell viability is calculated as follows: % Cell viability=(luminescence value of test sample)/(average luminescence value of 2% DMSO control)×100%. HBV DNA inhibition was calculated as follows: 100−(HBV DNA copy number of test sample)/(average HBV DNA copy number of 2% DMSO control)×100%. No normalization to entecavir is required due to the excellent dynamic window of this assay. The CC50, EC50 and EC90 values were determined by dose-response curves fitted using non-linear regression.
(Real-time PCR tracks product formation cycle by cycle.)

A short description of data set [1]: Cell viability by CellTiter-Glo 2.0 (intracellular ATP) in HepG2.117 cells. The conditions noted are these: human, CellTiter-Glo 2.0, HepG2.117 cells, 3 days incubation. Format: cell-based. The protocol: as §1, §2, §3
Using the other plates, the cell viability is quantified by CellTiter-Glo 2.0 according to the manufacturer's manual. In brief, 100 μL of reagent solution is added to the culture plates and shaken for 2′. The plates are incubated at rt for 10 min and luminescence signal is subsequently measured on a VarioSkan Lux (ThermoFisher) plate reader.
as §4
A general note: Cellular ATP, detected with luciferase, serves as a proxy for viable cell number.

Molecules are shown by their SMILES.

What is called EC50 is the midpoint of the concentration-response curve. The term CC50 denotes the concentration at which the toxic effect on the cells reaches its halfway point. Higher therefore signals better tolerance by the cells. For the molecule `C=C[C@H](C)Nc1nc2c(c(=O)n1-c1ccc3c(c1)nnn3C)C[C@@H](C)N(C(=O)c1ccc(Br)c(C(F)(F)F)c1)C2` [Compound 13, (R)-7-(4-bromo-3-(trifluoromethyl)benzoyl)-2-(((S)-but-3-en-2-yl)amino)-6-methyl-3-(1-methyl-1H-benzo[d][1,2,3]triazol-5-yl)-5,6,7,8-tetrahydropyrido[3,4-d]pyrimidin-4(3H)-one], in the data set on HBV, the EC50 was below 50 nM. This molecule also yielded a 50% cytotoxic concentration (CC50) at 3 days in data set [1] of 48 µM.
The like results for `C=CC(COC)Nc1nc2c(c(=O)n1-c1ccc(C(=O)NC)cc1)C[C@@H](C)N(C(=O)c1ccc(Br)c(C(F)(F)F)c1)C2` (stereo partly drawn) [Compound 16] were, in that order, below 50 nM and above 0.5 µM.
For `C=C[C@H](C)Nc1nc2c(c(=O)n1-c1ccc3c(c1)ncn3C1CC1)C[C@@H](C)N(C(=O)c1ccc(Br)c(C(F)(F)F)c1)C2` [Compound 38, (6R)-7-[4-bromo-3-(trifluoromethyl)benzoyl]-3-(1-cyclopropylbenzimidazol-5-yl)-6-methyl-2-[[(1S)-1-methylallyl]amino]-6,8-dihydro-5H-pyrido[3,4-d]pyrimidin-4-one], in that order: below 50 nM and 24.3 µM.
The like results for `C=C[C@H](C)Nc1nc2c(c(=O)n1-c1ccc3c(c1)nc(C)n3C)C[C@@H](C)N(C(=O)c1ccc(Br)c(C(F)(F)F)c1)C2` [Compound 28, (R)-7-(4-bromo-3-(trifluoromethyl)benzoyl)-2-(((S)-but-3-en-2-yl)amino)-3-(1,2-dimethyl-1H-benzo[d]imidazol-5-yl)-6-methyl-5,6,7,8-tetrahydropyrido[3,4-d]pyrimidin-4(3H)-one] were, in that order, below 50 nM and 30.5 µM.
As for `C=C[C@H](C)Nc1nc2c(c(=O)n1-c1cnc(C(=O)NC)c(Cl)c1)C[C@@H](C)N(C(=O)c1ccc(Br)c(C(F)(F)F)c1)C2` [Compound 42, 5-[(6R)-7-[4-bromo-3-(trifluoromethyl)benzoyl]-6-methyl-2-[[(1S)-1-methylallyl]amino]-4-oxo-6,8-dihydro-5H-pyrido[3,4-d]pyrimidin-3-yl]-3-chloro-N-methyl-pyridine-2-carboxamide], the EC50 in the data set on HBV was below 50 nM. The molecule also came in with a CC50 at 3 days in data set [1] above 50 µM.
Regarding `C=C[C@H](C)Nc1nc2c(c(=O)n1-c1ccc3ncn(C)c3c1)C[C@@H](C)N(C(=O)c1ccc(Br)c(C(F)(F)F)c1)C2` [Compound 25, (R)-7-(4-bromo-3-(trifluoromethyl)benzoyl)-2-(((S)-but-3-en-2-yl)amino)-6-methyl-3-(1-methyl-1H-benzo[d]imidazol-6-yl)-5,6,7,8-tetrahydropyrido[3,4-d]pyrimidin-4(3H)-one], the EC50 in the data set with HBV is below 50 nM. This molecule also returned a half-maximal cytotoxic concentration (CC50) at 3 days in data set [1] of 29.7 µM.
The like results for `C=C[C@H](C)Nc1nc2c(c(=O)n1-c1ccc3c(c1)ncn3C)C[C@@H](C)N(C(=O)c1ccc(Br)c(C(F)(F)F)c1)C2` [Compound 17, (R)-7-(4-bromo-3-(trifluoromethyl)benzoyl)-2-(((S)-but-3-en-2-yl)amino)-6-methyl-3-(1-methyl-1H-benzo[d]imidazol-5-yl)-5,6,7,8-tetrahydropyrido[3,4-d]pyrimidin-4(3H)-one] were, in that order, below 50 nM and above 0.5 µM.
For `C=CC(C)Nc1nc2c(c(=O)n1-c1ccc(C(=O)NC)cc1)C[C@@H](C)N(C(=O)c1ccc(Br)c(C(F)(F)F)c1)C2` (single isomer, unassigned) [Compound 2a], in that order: below 50 nM and above 0.5 µM.
Consider `CNC(=O)c1ccc(-n2c(C#CCC(C)C)nc3c(c2=O)C[C@@H](C)N(C(=O)c2ccc(Br)c(C(F)(F)F)c2)C3)cc1` [Compound 23, (R)-4-(7-(4-bromo-3-(trifluoromethyl)benzoyl)-6-methyl-2-(4-methylpent-1-yn-1-yl)-4-oxo-5,6,7,8-tetrahydropyrido[3,4-d]pyrimidin-3(4H)-yl)-N-methylbenzamide], for which the EC50 in the data set with HBV was 50 to 500 nM. The same molecule returned a CC50 at 3 days in data set [1] of 11.7 µM.
Take `C=C[C@H](C)Nc1nc2c(c(=O)n1-c1cc(Cl)c3c(cnn3C)c1)C[C@@H](C)N(C(=O)c1ccc(Br)c(C(F)(F)F)c1)C2` [Compound 34]: in the data set with HBV, the EC50 is below 50 nM. Besides, in data set [1], the CC50 at 3 days worked out at 11.6 µM.
As for `C=C[C@H](C)Nc1nc2c(c(=O)n1-c1ccc3c(c1)ncn3CC(F)(F)F)C[C@@H](C)N(C(=O)c1ccc(Br)c(C(F)(F)F)c1)C2` [Compound 35, (6R)-7-[4-bromo-3-(trifluoromethyl)benzoyl]-6-methyl-2-[[(1S)-1-methylallyl]amino]-3-[1-(2,2,2-trifluoroethyl)benzimidazol-5-yl]-6,8-dihydro-5H-pyrido[3,4-d]pyrimidin-4-one], the EC50 with HBV is below 50 nM. This molecule showed a CC50 at 3 days in data set [1] of 28.5 µM.
Take `C=CC(C)N(C)c1nc2c(c(=O)n1-c1ccc(C(=O)NC)cc1)C[C@@H](C)N(C(=O)c1ccc(Br)c(C(F)(F)F)c1)C2` (stereo partly drawn) [Compound 10a]: the EC50 in the data set with HBV was below 50 nM. The molecule also gave a 50% cytotoxic concentration (CC50) at 3 days in data set [1] above 50 µM.
For the molecule `C=C[C@H](C)Nc1nc2c(c(=O)n1-c1ccc(OCC(C)O)cc1)C[C@@H](C)N(C(=O)c1ccc(Br)c(C(F)(F)F)c1)C2` (stereo in doubt) [Compound 31, (R)-7-(4-bromo-3-(trifluoromethyl)benzoyl)-2-(((S)-but-3-en-2-yl)amino)-3-(4-((S)-2-hydroxypropoxy)phenyl)-6-methyl-5,6,7,8-tetrahydropyrido[3,4-d]pyrimidin-4(3H)-one], the EC50 in the data set with HBV was below 50 nM. In data set [1], this molecule yielded a CC50 at 3 days of 29.6 µM.
In the case of `CNC(=O)c1ccc(-n2c(C#CC(C)(C)N)nc3c(c2=O)C[C@@H](C)N(C(=O)c2ccc(Br)c(C(F)(F)F)c2)C3)cc1` [Compound 14, (R)-4-(2-(3-amino-3-methylbut-1-yn-1-yl)-7-(4-bromo-3-(trifluoromethyl)benzoyl)-6-methyl-4-oxo-5,6,7,8-tetrahydropyrido[3,4-d]pyrimidin-3(4H)-yl)-N-methylbenzamide], the EC50 in the data set with HBV is 50 to 500 nM. Moreover, the CC50 at 3 days in data set [1] was above 0.5 µM.
As to `C=C[C@H](C)Nc1nc2c(c(=O)n1-c1ccc3c(cnn3C)c1)C[C@@H](C)N(C(=O)c1ccc(Br)c(C(F)(F)F)c1)C2` [Compound 33, (6R)-7-[4-bromo-3-(trifluoromethyl)benzoyl]-6-methyl-2-[[(1S)-1-methylallyl]amino]-3-(1-methylindazol-5-yl)-6,8-dihydro-5H-pyrido[3,4-d]pyrimidin-4-one], in the data set with HBV, the concentration for a half-maximal effect (EC50) is below 50 nM. The CC50 at 3 days in data set [1] was above 50 µM.
The like results for `C=C[C@@H](C)Nc1nc2c(c(=O)n1-c1ccc(-c3nncn3C)cc1)C[C@@H](C)N(C(=O)c1ccc(Br)c(C(F)(F)F)c1)C2` [Compound 22, (R)-7-(4-bromo-3-(trifluoromethyl)benzoyl)-2-(((R)-but-3-en-2-yl)amino)-6-methyl-3-(4-(4-methyl-4H-1,2,4-triazol-3-yl)phenyl)-5,6,7,8-tetrahydropyrido[3,4-d]pyrimidin-4(3H)-one] were, in that order, below 50 nM and above 50 µM.
Turning to `C=C[C@H](C)Nc1nc2c(c(=O)n1-c1cnc3c(c1)ncn3C)C[C@@H](C)N(C(=O)c1ccc(Br)c(C(F)(F)F)c1)C2` [Compound 26, (R)-7-(4-bromo-3-(trifluoromethyl)benzoyl)-2-(((S)-but-3-en-2-yl)amino)-6-methyl-3-(3-methyl-3H-imidazo[4,5-b]pyridin-6-yl)-5,6,7,8-tetrahydropyrido[3,4-d]pyrimidin-4(3H)-one], the EC50 with HBV is below 50 nM. Besides, the half-maximal cytotoxic concentration (CC50) at 3 days in data set [1] was above 0.5 µM.
For `C=C[C@H](C)Nc1nc2c(c(=O)n1-c1ccc(OC[C@@H](C)O)cn1)C[C@@H](C)N(C(=O)c1ccc(Br)c(C(F)(F)F)c1)C2` [Compound 39, (6R)-7-[4-bromo-3-(trifluoromethyl)benzoyl]-3-[5-[(2R)-2-hydroxypropoxy]-2-pyridyl]-6-methyl-2-[[(1S)-1-methylallyl]amino]-6,8-dihydro-5H-pyrido[3,4-d]pyrimidin-4-one], in that order: below 50 nM and 28.1 µM.

The values are drawn from US11957683B2, “Bicyclic compounds” (Aligos Therapeutics, Inc., priority 2021, dated 2024).
